Source: US6911220B1, “Allogeneic and xenogeneic transplantation” (The General Hospital Corporation, priority 1992, dated 2005)

Test system: pig kidney transplants in Cynomolgus monkeys
Assay: Pig to monkey kidney xenotransplantation

N=C(N)NCCCCCCC(=O)NC(O)C(=O)NCCCCNCCCN (stereo not shown) [DSG, 15-deoxyspergualin]
suppression of natural antibody function (6 mg/kg/day, i.v., pig to cynomolgus kidney transplants): useful in suppressing natural antibody function
usefulness of combination treatment (cyclosporine 15 mg/kg/day 28 days + 15-deoxyspergualin 6 mg/kg/day two weeks + pig SCF and IL-3 10 μg/kg/day i.v. two weeks, pig grafts and stem cells): useful
day until which the pig kidney functioned (splenectomy + pig liver perfusion, cyclosporine 15 mg/kg/day iv and DSG 6 mg/kg/day iv post-transplant, removed on day 8): 7 days
IgM natural antibodies in serum after liver perfusion (with cyclosporine 15 mg/kg/day iv and DSG 6 mg/kg/day iv): did not appear in the serum thereafter
